Measurements published in the supplement of paper PMC10307832.

Legend:
Assay in all cases: relative viability (nuclei count vs DMSO), 5 days (fraction); higher = more cells survive
CAL-12T = system: CAL-12T
How it was run: (§1)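 Relative viability equals treated-well nuclei counts divided by vehicle-well nuclei counts. Counts came from 4× images of lung cancer cell lines grown in 1536-well plates for 5 days after pin-tool dosing on the day after seeding. Dosing used one drug alone or a fixed anchor-drug dose plus five library-drug doses (not always all listed) in √10 steps, and values are medians of duplicate plates.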

EKVX = system: EKVX
How it was run: as §1

H3255 = system: H3255
How it was run: as §1

HCC-15 = system: HCC-15
How it was run: as §1

HCC-827 = system: HCC-827
How it was run: as §1

LCLC-97TM1 = system: LCLC-97TM1
How it was run: as §1

LK-2 = system: LK-2
How it was run: as §1

NCI-H1355 = system: NCI-H1355
How it was run: as §1

NCI-H1650 = system: NCI-H1650
How it was run: as §1

NCI-H1734 = system: NCI-H1734
How it was run: as §1

NCI-H1755 = system: NCI-H1755
How it was run: as §1

NCI-H1975 = system: NCI-H1975
How it was run: as §1

NCI-H2228 = system: NCI-H2228
How it was run: as §1

NCI-H2342 = system: NCI-H2342
How it was run: as §1

NCI-H2405 = system: NCI-H2405
How it was run: as §1

NCI-H322M = system: NCI-H322M
How it was run: as §1

NCI-H520 = system: NCI-H520
How it was run: as §1

NCI-H661 = system: NCI-H661
How it was run: as §1

PC-14 = system: PC-14
How it was run: as §1

PC-3 [JPC-3] = system: PC-3 [JPC-3]
How it was run: as §1

RERF-LC-KJ = system: RERF-LC-KJ
How it was run: as §1

Nc1ccn([C@@H]2O[C@H](CO)[C@@H](O)[C@@H]2O)c(=O)n1 [Cytarabine] + O=C(c1cc(Cc2n[nH]c(=O)c3ccccc23)ccc1F)N1CCN(C(=O)C2CC2)CC1 [Olaparib] (partner 8 µM)
relative viability (CAL-12T; first compound 0.005 µM): 0.859
relative viability (CAL-12T; first compound 0.01581 µM): 0.68
relative viability (CAL-12T; first compound 0.05 µM): 0.537
relative viability (CAL-12T; first compound 0.1581 µM): 0.288
relative viability (CAL-12T; first compound 0.5 µM): 0.223
relative viability (EKVX; first compound 0.005 µM): 0.819
relative viability (EKVX; first compound 0.01581 µM): 0.665
relative viability (EKVX; first compound 0.05 µM): 0.695
relative viability (EKVX; first compound 0.5 µM): 0.234
relative viability (H3255; first compound 0.005 µM): 0.569
relative viability (H3255; first compound 0.01581 µM): 0.552
relative viability (H3255; first compound 0.05 µM): 0.495
relative viability (H3255; first compound 0.1581 µM): 0.526
relative viability (H3255; first compound 0.5 µM): 0.446
relative viability (HCC-15; first compound 0.005 µM): 0.706
relative viability (HCC-15; first compound 0.01581 µM): 0.655
relative viability (HCC-15; first compound 0.05 µM): 0.841
relative viability (HCC-15; first compound 0.1581 µM): 0.649
relative viability (HCC-15; first compound 0.5 µM): 0.539
relative viability (HCC-827; first compound 0.005 µM): 0.459
relative viability (HCC-827; first compound 0.01581 µM): 0.367
relative viability (HCC-827; first compound 0.05 µM): 0.0662
relative viability (HCC-827; first compound 0.1581 µM): 0.159
relative viability (HCC-827; first compound 0.5 µM): 0.189
relative viability (LCLC-97TM1; first compound 0.005 µM): 0.34
relative viability (LCLC-97TM1; first compound 0.01581 µM): 0.333
relative viability (LCLC-97TM1; first compound 0.05 µM): 0.183
relative viability (LCLC-97TM1; first compound 0.1581 µM): 0.126
relative viability (LCLC-97TM1; first compound 0.5 µM): 0.106
relative viability (LK-2; first compound 0.005 µM): 0.659
relative viability (LK-2; first compound 0.01581 µM): 0.5
relative viability (LK-2; first compound 0.05 µM): 0.316
relative viability (LK-2; first compound 0.1581 µM): 0.164
relative viability (LK-2; first compound 0.5 µM): 0.148
relative viability (NCI-H1355; first compound 0.005 µM): 0.731
relative viability (NCI-H1355; first compound 0.01581 µM): 0.673
relative viability (NCI-H1355; first compound 0.05 µM): 0.57
relative viability (NCI-H1355; first compound 0.1581 µM): 0.396
relative viability (NCI-H1355; first compound 0.5 µM): 0.344
relative viability (NCI-H1650; first compound 0.005 µM): 0.638
relative viability (NCI-H1650; first compound 0.01581 µM): 0.772
relative viability (NCI-H1650; first compound 0.05 µM): 0.472
relative viability (NCI-H1650; first compound 0.1581 µM): 0.268
relative viability (NCI-H1650; first compound 0.5 µM): 0.168
relative viability (NCI-H1734; first compound 0.005 µM): 0.4
relative viability (NCI-H1734; first compound 0.01581 µM): 0.243
relative viability (NCI-H1734; first compound 0.05 µM): 0.183
relative viability (NCI-H1734; first compound 0.1581 µM): 0.108
relative viability (NCI-H1734; first compound 0.5 µM): 0.122
relative viability (NCI-H1755; first compound 0.005 µM): 0.893
relative viability (NCI-H1755; first compound 0.01581 µM): 0.889
relative viability (NCI-H1755; first compound 0.05 µM): 0.584
relative viability (NCI-H1755; first compound 0.1581 µM): 0.398
relative viability (NCI-H1755; first compound 0.5 µM): 0.342
relative viability (NCI-H1975; first compound 0.005 µM): 0.671
relative viability (NCI-H1975; first compound 0.01581 µM): 0.871
relative viability (NCI-H1975; first compound 0.05 µM): 0.561
relative viability (NCI-H1975; first compound 0.1581 µM): 0.429
relative viability (NCI-H1975; first compound 0.5 µM): 0.253
relative viability (NCI-H2228; first compound 0.005 µM): 0.379
relative viability (NCI-H2228; first compound 0.01581 µM): 0.203
relative viability (NCI-H2228; first compound 0.05 µM): 0.19
relative viability (NCI-H2228; first compound 0.1581 µM): 0.13
relative viability (NCI-H2228; first compound 0.5 µM): 0.129
relative viability (NCI-H2342; first compound 0.005 µM): 0.477
relative viability (NCI-H2342; first compound 0.01581 µM): 0.477
relative viability (NCI-H2342; first compound 0.05 µM): 0.468
relative viability (NCI-H2342; first compound 0.1581 µM): 0.389
relative viability (NCI-H2342; first compound 0.5 µM): 0.31
relative viability (NCI-H2405; first compound 0.005 µM): 0.737
relative viability (NCI-H2405; first compound 0.01581 µM): 0.605
relative viability (NCI-H2405; first compound 0.05 µM): 0.509
relative viability (NCI-H2405; first compound 0.1581 µM): 0.396
relative viability (NCI-H2405; first compound 0.5 µM): 0.336
relative viability (NCI-H322M; first compound 0.005 µM): 0.773
relative viability (NCI-H322M; first compound 0.01581 µM): 0.695
relative viability (NCI-H322M; first compound 0.05 µM): 0.467
relative viability (NCI-H322M; first compound 0.1581 µM): 0.469
relative viability (NCI-H322M; first compound 0.5 µM): 0.351
relative viability (NCI-H520; first compound 0.005 µM): 0.276
relative viability (NCI-H520; first compound 0.01581 µM): 0.272
relative viability (NCI-H520; first compound 0.05 µM): 0.337
relative viability (NCI-H520; first compound 0.1581 µM): 0.263
relative viability (NCI-H520; first compound 0.5 µM): 0.239
relative viability (NCI-H661; first compound 0.005 µM): 0.677
relative viability (NCI-H661; first compound 0.01581 µM): 0.773
relative viability (NCI-H661; first compound 0.05 µM): 0.646
relative viability (NCI-H661; first compound 0.1581 µM): 0.518
relative viability (NCI-H661; first compound 0.5 µM): 0.398
relative viability (PC-14; first compound 0.005 µM): 0.227
relative viability (PC-14; first compound 0.01581 µM): 0.252
relative viability (PC-14; first compound 0.05 µM): 0.241
relative viability (PC-14; first compound 0.1581 µM): 0.105
relative viability (PC-14; first compound 0.5 µM): 0.0848
relative viability (PC-3 [JPC-3]; first compound 0.005 µM): 0.508
relative viability (PC-3 [JPC-3]; first compound 0.01581 µM): 1.09
relative viability (PC-3 [JPC-3]; first compound 0.05 µM): 0.971
relative viability (PC-3 [JPC-3]; first compound 0.1581 µM): 0.682
relative viability (PC-3 [JPC-3]; first compound 0.5 µM): 0.617
relative viability (RERF-LC-KJ; first compound 0.005 µM): 0.886
relative viability (RERF-LC-KJ; first compound 0.01581 µM): 0.806
relative viability (RERF-LC-KJ; first compound 0.05 µM): 0.655
relative viability (RERF-LC-KJ; first compound 0.1581 µM): 0.459
relative viability (RERF-LC-KJ; first compound 0.5 µM): 0.277
